Measured values: patent publication US20240300927A1, “AMIDES AS CBL-B INHIBITORS” (Genentech, Inc., priority 2021, published 2024)

Assays:
Cbl-b = Cbl-b (Homo sapiens (Human), UniProt Q13191); test: Cbl-b LCK Ub TR-FRET assay (Cbl-b Lck HTRF); assay type: biochemical
In short: (§1)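 Biotin-Cbl-b (16 nM) or biotin-c-Cbl (12 nM) at 2× preincubated with compound 60 min, then His-LCK (120 nM), 1 mM ATP and MgCl2 (2× mix) added for 90 min at RT. Buffer: HEPES pH 7.0, DTT. UBE2D2–HA-ubiquitin transfer read by TR-FRET (665/615 nm); IC50 versus no-LCK and DMSO controls, 10-point dilutions.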

c-Cbl = c-Cbl (Homo sapiens (Human), UniProt P22681); test: C-cbl LCK Ub TR-FRET assay (C-cbl Lck HTRF); assay type: biochemical
c-Cbl, sequence (P22681 47-435): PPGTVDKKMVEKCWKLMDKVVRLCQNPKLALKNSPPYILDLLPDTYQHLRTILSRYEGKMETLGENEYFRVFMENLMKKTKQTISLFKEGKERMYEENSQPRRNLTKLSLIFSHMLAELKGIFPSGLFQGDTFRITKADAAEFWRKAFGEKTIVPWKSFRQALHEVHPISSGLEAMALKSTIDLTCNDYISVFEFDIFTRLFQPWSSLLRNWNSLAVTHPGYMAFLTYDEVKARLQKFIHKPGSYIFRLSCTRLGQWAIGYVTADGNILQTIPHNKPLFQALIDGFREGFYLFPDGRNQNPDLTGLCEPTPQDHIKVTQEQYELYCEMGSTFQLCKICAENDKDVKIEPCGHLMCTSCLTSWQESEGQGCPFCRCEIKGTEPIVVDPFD
In short: as §1

Cbl-b, sequence (Q13191 40-426): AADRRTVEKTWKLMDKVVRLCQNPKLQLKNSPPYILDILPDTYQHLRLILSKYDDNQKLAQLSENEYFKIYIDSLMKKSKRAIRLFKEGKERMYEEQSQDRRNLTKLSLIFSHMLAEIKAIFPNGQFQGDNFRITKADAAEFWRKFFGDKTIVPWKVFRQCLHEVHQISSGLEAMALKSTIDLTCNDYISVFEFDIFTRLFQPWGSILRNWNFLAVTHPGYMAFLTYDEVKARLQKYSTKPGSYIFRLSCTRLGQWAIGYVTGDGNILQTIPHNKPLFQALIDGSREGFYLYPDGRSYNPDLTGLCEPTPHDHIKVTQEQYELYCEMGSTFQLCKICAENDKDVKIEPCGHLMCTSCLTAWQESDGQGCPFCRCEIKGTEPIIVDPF

(fold-selectivity) (Cbl-b; Cbl-b and C-Cbl selectivity, Lck HTRF): (0.67x)
IC50 (Cbl-b; read-out: Cbl-b Lck HTRF IC50): 4.4 µM
IC50 (c-Cbl): 2.9 µM
Structure (SMILES): C[C@H](Cc1nncn1C)c1cccc(NC(=O)c2nc(C(F)(F)F)cn2C)c1 [Compound 121, (R)-1-methyl-N-(3-(1-(4-methyl-4H-1,2,4-triazol-3-yl)propan-2-yl)phenyl)-4-(trifluoromethyl)-1H-imidazole-2-carboxamide]
